Measurements: ChEMBL document CHEMBL1201862, “PubChem BioAssay data set” (2004)
The source made the active and inactive calls.

How the values were obtained:
[1] = target: T1, Oxysterols receptor LXR-beta (Homo sapiens, UniProt P55055); assay type: functional, cell-based;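 note: agonist activity at LXR measured by a cell-based luminescence readout across a dose range, run as a counterscreen for daf-12 agonists; HEK293 cells with Gal4-LXR fusion and GAL4-driven luciferase reporter; potency for activation of Gal4-LXR reporter so compounds are agonists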
T1 sequence (P55055 whole entry): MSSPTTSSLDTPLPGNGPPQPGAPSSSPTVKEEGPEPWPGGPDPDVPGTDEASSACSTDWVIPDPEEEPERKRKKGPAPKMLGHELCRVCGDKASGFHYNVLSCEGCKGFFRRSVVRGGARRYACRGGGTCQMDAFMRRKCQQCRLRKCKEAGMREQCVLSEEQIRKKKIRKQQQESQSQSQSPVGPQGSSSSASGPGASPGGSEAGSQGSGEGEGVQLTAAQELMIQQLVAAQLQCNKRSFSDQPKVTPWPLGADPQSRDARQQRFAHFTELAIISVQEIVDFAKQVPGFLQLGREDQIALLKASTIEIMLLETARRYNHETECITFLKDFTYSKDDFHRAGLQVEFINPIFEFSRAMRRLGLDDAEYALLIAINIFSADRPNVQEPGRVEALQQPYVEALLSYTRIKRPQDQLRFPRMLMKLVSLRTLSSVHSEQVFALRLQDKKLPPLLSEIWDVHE

[2] = cytotoxicity toward NIH3T3 fibroblasts, dose response, counter-screen, cell-based, ATP luminescence, mouse fibroblasts (AID 2010); assay type: functional;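 note: cells exposed to compound for about 90 hours before reading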
[3] = inhibitors of intracellular T. cruzi replication, confirmation, NIH3T3 host cells, beta-gal luminescence (AID 2044); assay type: functional, cell-based;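 note: intracellular parasites grown in NIH/3T3 mouse fibroblasts as host cells; luminescent beta-galactosidase reporter signal from transgenic T. cruzi replicating inside host cells; inhibitors lower the luminescence signal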
[4] = HEK293 Cytotoxicity Assay Measured in Cell-Based System Using Plate Reader - 7071-01_Inhibitor_Dose_CherryPick_Activity_Set2.; assay type: functional
HEK293 = assay: HEK293T cell cytotoxicity, dose response, cytotoxicity control, ATP luminescence, cherry-pick samples (AID 687005); assay type: functional, cell-based; settings: Homo sapiens;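 note: cells exposed to compound for 48 hours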
Vero [5] = assay: host cell cytotoxicity of antiviral hits, dose response, cytotoxicity control for West Nile virus antiviral project, secondary assay (AID 1650); assay type: functional; settings: Chlorocebus sabaeus
[6] = inhibitors of PGC1a acetylation in cells, dose response, cell-based, cherry-picked samples (AID 720514); assay type: functional;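 note: potency may reflect raised or lowered acetylation signal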
Vero [7] = assay: cells; assay type: functional, cell-based; settings: Chlorocebus sabaeus
Vero [8] = assay: cells; assay type: functional; settings: Chlorocebus sabaeus
[9] = inhibitors of firefly luciferase expression or activity, dose response, H4 neuroglioma cells, luminescence (AID 1990); assay type: functional, cell-based
[10] = cytotoxicity toward DRD oncogenic fibroblasts, dose response, cell-based, non-viral oncogenic, luminescence (AID 1934); assay type: functional; settings: Homo sapiens
BJ [11] = assay: cytotoxicity toward BJ-TERT-LT-ST fibroblasts, dose response, cell-based, RAS-independent, luminescence (AID 1935); assay type: functional; settings: Homo sapiens;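 note: BJ fibroblasts immortalized with TERT plus LT and ST oncogenes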
[12] = inhibitors of SNCA 5'UTR-driven reporter translation, confirmation, H4 neuroglioma cells, luminescence (AID 1988); assay type: functional, cell-based
[13] = Luminescence Cell-Based Dose Response HTS to Identify Inhibitors of 5'UTR Stem-Loop Driven Prion Protein mRNA Translation in H4 Neuroglioblastoma Cells. [Related pubchem assays: 1827 (Project Summary), 1813 (Primary HTS)]; assay type: functional
[14] = insulin promoter down-regulators in MIN6 cells, imaging, high-content screening, mouse beta cells (AID 1628); assay type: functional
BJ [15] = assay: cells; assay type: functional, cell-based; settings: Homo sapiens
[16] = cytotoxicity in MIN6 insulinoma cells, dose response, cytotoxicity control, cell-based, mouse insulinoma (AID 2122); assay type: functional;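 note: confirmatory high-throughput counterscreen run to flag cytotoxic compounds; mouse MIN-6 beta cells carrying an insulin promoter eGFP reporter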
BJ [17] = assay: cytotoxicity toward BJ-TERT fibroblasts, dose response, cell-based, RAS-independent, luminescence (AID 1933); assay type: functional; settings: Homo sapiens
[18] = target: T2, Heat shock factor protein 1 (Mus musculus, UniProt P38532); assay: HSF1 potentiators in luciferase reporter cells, confirmation, cell-based, NIH3T3, luminescence, dose retest (AID 435004); assay type: functional;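 note: stress induced by proteasome inhibitor MG132 added 30 min after compound; luciferase reporter driven by HSF1 response element in NIH3T3 cells; actives raise luminescence as potentiators of the MG132 stress response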
T2 sequence (P38532 whole entry): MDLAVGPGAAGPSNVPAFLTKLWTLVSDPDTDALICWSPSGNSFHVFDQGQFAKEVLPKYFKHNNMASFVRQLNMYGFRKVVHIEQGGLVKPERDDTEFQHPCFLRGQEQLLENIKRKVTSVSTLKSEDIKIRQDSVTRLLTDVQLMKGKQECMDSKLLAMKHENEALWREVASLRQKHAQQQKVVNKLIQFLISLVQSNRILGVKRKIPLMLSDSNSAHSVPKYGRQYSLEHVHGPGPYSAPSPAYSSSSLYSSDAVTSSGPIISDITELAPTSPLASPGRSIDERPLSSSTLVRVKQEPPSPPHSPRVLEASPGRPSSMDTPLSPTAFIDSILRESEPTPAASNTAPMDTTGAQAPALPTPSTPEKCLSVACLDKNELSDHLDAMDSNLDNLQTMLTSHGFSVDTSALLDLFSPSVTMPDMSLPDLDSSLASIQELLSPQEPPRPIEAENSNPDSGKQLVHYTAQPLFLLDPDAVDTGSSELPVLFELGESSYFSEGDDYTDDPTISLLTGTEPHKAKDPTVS

[19] = target: T3, Aryl hydrocarbon receptor (Homo sapiens, UniProt P35869); assay: Luminescence-based cell-based high throughput dose response assay for activators of the Aryl Hydrocarbon Receptor (AHR). [Related pubchem assays: 2796 (Primary screen (AHR activators in singlicate)), 2845 (Confirmation screen (AHR activators in triplicate)), 434939 (Counterscreen (PXR activators in triplicate)), 2804 (Summary (AHR activators))]; assay type: ADME
T3 sequence (P35869 whole entry): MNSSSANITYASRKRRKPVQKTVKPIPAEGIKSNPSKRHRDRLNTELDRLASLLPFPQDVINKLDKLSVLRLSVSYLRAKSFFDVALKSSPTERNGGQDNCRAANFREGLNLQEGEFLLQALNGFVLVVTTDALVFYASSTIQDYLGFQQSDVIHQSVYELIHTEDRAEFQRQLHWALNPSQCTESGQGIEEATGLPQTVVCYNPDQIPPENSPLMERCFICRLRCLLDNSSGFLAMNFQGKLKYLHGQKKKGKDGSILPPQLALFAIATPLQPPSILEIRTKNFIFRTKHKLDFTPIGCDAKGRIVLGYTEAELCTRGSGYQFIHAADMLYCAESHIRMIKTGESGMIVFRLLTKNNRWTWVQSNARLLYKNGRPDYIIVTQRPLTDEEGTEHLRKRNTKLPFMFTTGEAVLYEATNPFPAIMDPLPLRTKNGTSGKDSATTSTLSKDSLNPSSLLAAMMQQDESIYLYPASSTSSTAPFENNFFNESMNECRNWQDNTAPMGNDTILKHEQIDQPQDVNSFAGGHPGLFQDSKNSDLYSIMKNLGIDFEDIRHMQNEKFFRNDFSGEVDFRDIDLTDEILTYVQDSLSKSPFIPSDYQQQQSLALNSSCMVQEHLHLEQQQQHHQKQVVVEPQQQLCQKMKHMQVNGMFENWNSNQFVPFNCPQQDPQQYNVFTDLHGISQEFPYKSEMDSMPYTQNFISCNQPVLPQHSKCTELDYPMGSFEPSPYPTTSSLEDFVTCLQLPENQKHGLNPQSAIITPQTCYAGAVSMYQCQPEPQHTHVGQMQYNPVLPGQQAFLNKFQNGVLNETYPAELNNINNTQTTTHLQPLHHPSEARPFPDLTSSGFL

fMet-Leu-Phe receptor = fMet-Leu-Phe receptor (Homo sapiens, UniProt P21462); assay: FPR ligands, dose response (AID 519); assay type: functional
[20] = ADAM10 inhibitors, peptide cleavage, dose response, biochemical, QFRET (AID 743254);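 note: ADAM10 enzyme with the DM2 quenched FRET peptide as substrate; EDANS fluorescence gain as the protease cuts the substrate; inhibitor potency against ADAM10 proteolytic activity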
[21] = target: Disintegrin and metalloproteinase domain-containing protein 17 (Homo sapiens, UniProt P78536); assay: ADAM17 protease inhibitors, dose response, counter-screen for ADAM10 exosite inhibitor project, biochemical, quenched FRET substrate (AID 743253)
Transthyretin = Transthyretin (Homo sapiens, UniProt P02766); assay: Luminescence-based cell-based high throughput dose response assay to identify activators of Transthyretin (TTR) transcription.; assay type: functional
[22] = microbe, parasite or virus in culture; assay type: functional; settings: Mycobacterium tuberculosis
[23] = human group III sPLA2 inhibitors, dose response, biochemical, QFRET, IC50 (AID 743457);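 note: green fluorescence rise as the enzyme cleaves BODIPY PC-A2 in liposomes; potency for inhibition of the enzyme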
Nonstructural protein 1 = Nonstructural protein 1 (Influenza A virus, UniProt Q194T2); assay type: functional, Influenza A virus (A/California/07/2009(H1N1))
[24] = target: 1-phosphatidylinositol 4,5-bisphosphate phosphodiesterase gamma-1 (Homo sapiens, UniProt P19174); assay: Counterscreen for inhibitors of phospholipase C isozymes (PLC-B3): Fluorescence-based biochemical high throughput dose response assay to identify inhibitors of phospholipase C isozymes (PLC-gamma1).
[25] = target: 1-phosphatidylinositol 4,5-bisphosphate phosphodiesterase beta-3 (Homo sapiens, UniProt Q01970); assay: Fluorescence-based biochemical high throughput dose response assay to identify inhibitors of phospholipase C isozymes (PLC-B3).
[26] = HepG2 cell cytotoxicity, dose response, cytotoxicity control, cherry-picks, set 5 (AID 1053118); assay type: functional, cell-based
[27] = HEK293 cell cytotoxicity, dose response, cytotoxicity control, cherry-picks, set 5 (AID 1053117); assay type: functional, cell-based

Sequence of 1-phosphatidylinositol 4,5-bisphosphate phosphodiesterase beta-3 (Q01970 whole entry): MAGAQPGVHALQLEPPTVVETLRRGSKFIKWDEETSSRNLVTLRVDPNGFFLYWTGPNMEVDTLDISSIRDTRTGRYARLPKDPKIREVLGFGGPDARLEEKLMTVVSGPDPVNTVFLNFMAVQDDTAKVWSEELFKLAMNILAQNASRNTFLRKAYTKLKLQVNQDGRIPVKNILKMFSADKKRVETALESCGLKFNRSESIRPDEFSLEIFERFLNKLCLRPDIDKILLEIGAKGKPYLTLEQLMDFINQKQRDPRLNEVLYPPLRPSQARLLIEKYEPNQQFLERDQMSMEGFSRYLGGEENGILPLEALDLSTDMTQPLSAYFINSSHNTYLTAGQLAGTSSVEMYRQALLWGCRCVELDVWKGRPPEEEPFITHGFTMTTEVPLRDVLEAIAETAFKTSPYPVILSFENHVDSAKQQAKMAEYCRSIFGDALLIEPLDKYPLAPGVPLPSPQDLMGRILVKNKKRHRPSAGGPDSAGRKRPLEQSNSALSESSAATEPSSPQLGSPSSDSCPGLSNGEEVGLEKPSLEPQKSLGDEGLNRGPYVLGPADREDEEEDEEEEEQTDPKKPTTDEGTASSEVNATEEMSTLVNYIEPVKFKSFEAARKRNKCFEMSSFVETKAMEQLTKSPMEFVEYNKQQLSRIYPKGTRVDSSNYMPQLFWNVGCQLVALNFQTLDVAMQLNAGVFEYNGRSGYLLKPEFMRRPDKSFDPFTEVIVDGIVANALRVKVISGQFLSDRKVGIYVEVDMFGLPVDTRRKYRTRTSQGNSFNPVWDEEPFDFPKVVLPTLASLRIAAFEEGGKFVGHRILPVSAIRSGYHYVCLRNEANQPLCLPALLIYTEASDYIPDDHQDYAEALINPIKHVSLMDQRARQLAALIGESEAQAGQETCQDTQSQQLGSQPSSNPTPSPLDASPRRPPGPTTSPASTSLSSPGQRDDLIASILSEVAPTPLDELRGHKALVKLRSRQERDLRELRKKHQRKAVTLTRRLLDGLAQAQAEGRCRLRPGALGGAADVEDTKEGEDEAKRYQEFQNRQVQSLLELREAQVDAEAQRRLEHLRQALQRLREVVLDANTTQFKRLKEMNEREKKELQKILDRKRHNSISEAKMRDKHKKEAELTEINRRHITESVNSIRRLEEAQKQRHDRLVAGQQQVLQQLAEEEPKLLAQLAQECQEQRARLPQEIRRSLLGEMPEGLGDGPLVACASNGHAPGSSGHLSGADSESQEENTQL
Sequence of Disintegrin and metalloproteinase domain-containing protein 17 (P78536 whole entry, the tested form may be a part): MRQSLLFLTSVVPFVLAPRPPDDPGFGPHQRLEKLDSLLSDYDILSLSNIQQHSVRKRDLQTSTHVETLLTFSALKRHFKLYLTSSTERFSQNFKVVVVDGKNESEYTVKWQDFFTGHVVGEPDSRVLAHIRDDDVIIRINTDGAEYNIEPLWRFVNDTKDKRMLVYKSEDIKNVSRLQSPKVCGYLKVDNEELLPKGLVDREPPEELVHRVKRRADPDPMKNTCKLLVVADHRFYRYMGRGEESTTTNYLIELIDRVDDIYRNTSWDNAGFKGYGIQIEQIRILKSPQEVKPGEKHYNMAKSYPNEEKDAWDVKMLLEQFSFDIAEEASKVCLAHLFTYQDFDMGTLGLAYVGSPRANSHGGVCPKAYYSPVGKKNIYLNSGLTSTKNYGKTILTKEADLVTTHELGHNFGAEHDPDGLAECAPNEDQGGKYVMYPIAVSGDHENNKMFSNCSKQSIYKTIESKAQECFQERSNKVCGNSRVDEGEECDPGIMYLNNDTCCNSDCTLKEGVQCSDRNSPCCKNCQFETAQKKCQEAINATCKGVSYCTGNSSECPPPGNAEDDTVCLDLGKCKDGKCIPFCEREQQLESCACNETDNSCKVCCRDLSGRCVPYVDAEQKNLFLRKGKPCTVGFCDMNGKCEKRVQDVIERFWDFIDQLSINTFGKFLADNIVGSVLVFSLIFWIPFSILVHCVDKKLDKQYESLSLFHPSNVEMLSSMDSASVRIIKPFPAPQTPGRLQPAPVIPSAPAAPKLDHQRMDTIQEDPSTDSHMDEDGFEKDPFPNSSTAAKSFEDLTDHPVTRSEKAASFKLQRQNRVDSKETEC
Sequence of 1-phosphatidylinositol 4,5-bisphosphate phosphodiesterase gamma-1 (P19174 whole entry): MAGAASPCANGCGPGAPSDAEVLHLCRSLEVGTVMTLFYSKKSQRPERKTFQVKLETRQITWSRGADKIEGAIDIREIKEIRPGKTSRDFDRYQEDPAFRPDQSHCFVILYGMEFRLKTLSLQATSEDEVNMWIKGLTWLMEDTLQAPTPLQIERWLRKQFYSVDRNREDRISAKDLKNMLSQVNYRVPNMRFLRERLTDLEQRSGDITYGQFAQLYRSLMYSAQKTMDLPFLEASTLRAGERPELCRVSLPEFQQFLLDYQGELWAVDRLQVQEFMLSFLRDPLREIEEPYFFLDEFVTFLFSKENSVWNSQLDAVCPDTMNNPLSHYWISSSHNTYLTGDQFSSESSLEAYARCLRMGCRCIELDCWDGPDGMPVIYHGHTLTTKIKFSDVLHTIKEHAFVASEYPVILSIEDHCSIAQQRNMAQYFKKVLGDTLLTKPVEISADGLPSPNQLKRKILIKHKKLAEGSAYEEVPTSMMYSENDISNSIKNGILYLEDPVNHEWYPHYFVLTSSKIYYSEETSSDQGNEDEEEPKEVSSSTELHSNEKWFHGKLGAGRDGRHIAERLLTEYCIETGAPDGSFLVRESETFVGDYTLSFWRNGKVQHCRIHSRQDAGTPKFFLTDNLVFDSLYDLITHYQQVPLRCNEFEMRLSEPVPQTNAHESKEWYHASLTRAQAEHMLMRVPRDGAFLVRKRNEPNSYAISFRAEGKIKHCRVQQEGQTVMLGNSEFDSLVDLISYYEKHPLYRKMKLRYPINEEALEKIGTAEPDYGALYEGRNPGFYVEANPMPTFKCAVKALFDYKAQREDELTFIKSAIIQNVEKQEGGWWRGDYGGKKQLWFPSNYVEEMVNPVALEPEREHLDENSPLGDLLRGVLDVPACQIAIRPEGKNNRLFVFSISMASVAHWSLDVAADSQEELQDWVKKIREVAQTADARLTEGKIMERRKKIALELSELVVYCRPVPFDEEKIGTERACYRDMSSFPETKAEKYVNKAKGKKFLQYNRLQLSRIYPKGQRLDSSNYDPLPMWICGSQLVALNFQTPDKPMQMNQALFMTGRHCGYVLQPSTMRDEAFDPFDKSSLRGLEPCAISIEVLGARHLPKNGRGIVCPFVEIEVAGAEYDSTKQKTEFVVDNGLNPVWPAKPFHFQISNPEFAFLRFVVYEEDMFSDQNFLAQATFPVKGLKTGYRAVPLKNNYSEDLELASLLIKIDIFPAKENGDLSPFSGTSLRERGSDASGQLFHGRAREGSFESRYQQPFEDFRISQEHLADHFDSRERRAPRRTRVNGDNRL
Sequence of fMet-Leu-Phe receptor (P21462 whole entry): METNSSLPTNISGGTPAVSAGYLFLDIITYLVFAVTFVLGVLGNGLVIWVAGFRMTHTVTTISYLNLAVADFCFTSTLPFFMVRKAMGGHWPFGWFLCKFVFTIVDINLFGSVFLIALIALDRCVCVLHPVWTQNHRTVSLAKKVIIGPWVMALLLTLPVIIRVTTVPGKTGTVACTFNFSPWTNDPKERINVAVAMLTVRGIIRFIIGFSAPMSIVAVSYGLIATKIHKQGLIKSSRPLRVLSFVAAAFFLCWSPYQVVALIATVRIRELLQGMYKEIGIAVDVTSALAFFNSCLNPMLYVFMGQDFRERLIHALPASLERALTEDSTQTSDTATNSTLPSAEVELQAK
Sequence of Nonstructural protein 1 (Q194T2 whole entry): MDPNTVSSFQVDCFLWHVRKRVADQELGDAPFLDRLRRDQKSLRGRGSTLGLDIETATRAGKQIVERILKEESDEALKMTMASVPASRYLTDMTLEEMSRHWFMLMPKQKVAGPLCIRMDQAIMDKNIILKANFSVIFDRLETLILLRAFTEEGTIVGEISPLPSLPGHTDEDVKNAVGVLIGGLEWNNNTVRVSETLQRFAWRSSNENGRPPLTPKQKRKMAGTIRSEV

Q: Which EC50 [1] does the source give for `O=c1[nH]cnc2cc(-c3ccccc3)sc12` here?
A: > 67.5 µM (inactive)

Q: For `CN(C)CCN(C(=O)c1ccc(S(=O)(=O)N2CCc3ccccc32)cc1)c1nc2ccc(F)cc2s1`, which EC50 (cells) is on record?
A: 0.188 µM (active)

Q: And the EC50 [2]?
A: > 60 µM (not active)

Q: And the EC50 [3]?
A: < 0.1 µM (active)

Q: For `CN(C)CC#CCC(O)(c1ccccc1)C1CCCC1` (stereo unspecified), which EC50 (cells) is on record?
A: 0.016 µM (active)

Q: What about the EC50 [2] of the same compound?
A: > 60 µM (not active)

Q: What about the EC50 [3] of the same compound?
A: < 0.1 µM (active)

Q: With `S=C(Nc1cccc(Cl)c1)Nc1ccccc1Oc1ccccc1` as the compound, how does the AC50 [4] read?
A: 23.5 µM (active)

Q: And the AC50 (HEK293)?
A: 23.5 µM (active)

Q: For `Cc1nc2ccccn2c1C(=O)/C=C/c1ccc(F)cc1`, which CC50 (Vero [5]) is on record?
A: 25.6 µM (active)

Q: And the AC50 [6]?
A: 0.76 µM (active)

Q: What about the IC50 (Vero [7]) of the same compound?
A: > 25 µM (active)

Q: What about the CC50 (Vero [8]) of the same compound?
A: 18.7 µM (active)

Q: Which results are given for `Cn1c(Cl)cnc1C1CC(=O)c2cc(Cl)ccc2O1` (stereo unspecified)?
A: EC50 [9]: 10.9 µM (active); EC50 [10]: 7.73 µM (active); EC50 (BJ [11]): 7.45 µM (inconclusive); EC50 [12]: > 120 µM (not active); EC50 [13]: 10.1 µM (active); CC50 (Vero [5]): 17.9 µM (active); AC50 [6]: 16.9 µM (active); IC50 [14]: 2.95 µM (active); EC50 (BJ [15]): 8.32 µM (inconclusive); IC50 [16]: 1.98 µM (active); EC50 (BJ [17]): 8.07 µM (active); EC50 [18]: 38.8 µM (active)

Q: With `O=C(N/N=C/c1ccc(-c2ccccc2[N+](=O)[O-])o1)c1cncc(Br)c1` as the compound, how does the EC50 [19] read?
A: 6.71 µM (active)

Q: For `CCOC(=O)Cc1cc(O)n2nc(C)c(-c3ccc(Cl)cc3)c2n1`, which Ki (fMet-Leu-Phe receptor) is on record?
A: 19 µM (inactive)

Q: For `CC(C)C1C(=O)N(Cc2cn(CC3CCCCC3)nn2)CCS(=O)(=O)N1Cc1ccc(-c2ccccc2)cc1` (stereo unspecified), which IC50 [20] is on record?
A: 10.2 µM (inactive)

Q: What about the IC50 [21] of the same compound?
A: > 69.5 µM (inactive)

Q: For `CC(=O)c1cc(C(C)=O)c(C)nc1C`, which EC50 (Transthyretin) is on record?
A: > 167 µM (inactive)

Q: Which EC50 [19] does the source give for `Cc1ccc2c(c1)c1nc3ccccc3nc1n2C` here?
A: 1 µM (active)

Q: For `O=C(COC(=O)c1ccc(Cl)c(S(=O)(=O)N2CCCCCC2)c1)Nc1ccccc1`, which IC50 [20] is on record?
A: > 69.5 µM (inactive)

Q: What about the IC50 [21] of the same compound?
A: > 69.5 µM (inactive)

Q: For `Cc1c(C(=O)OC2CCC(C)CC2)[nH]c2c1C(=O)CCC2` (stereo unspecified), which EC50 [1] is on record?
A: > 67.5 µM (inactive)

Q: With `CCOc1ccc(NC2=NC(=O)S/C2=C\c2ccc(O)cc2)cc1` as the compound, how does the EC50 (Transthyretin) read?
A: > 167 µM (inactive)

Q: With `Cc1cc(C)c(C)c(N=Nc2nc3ccccc3n2C)c1C` as the compound, how does the CC50 [22] read?
A: > 40 µM (active)

Q: What about the IC50 [23] of the same compound?
A: > 122 µM (inactive)

Q: And the IC50 (Nonstructural protein 1)?
A: 17.6 µM (active)

Q: Which IC50 [24] does the source give for `O=c1[nH]c2ccccc2c(=O)n1-c1ccc(Cl)cc1Cl` here?
A: > 122 µM (inactive)

Q: And the IC50 [25]?
A: > 122 µM (inactive)

Q: For `COC(=O)C(Cc1ccc(O)cc1)NC(=O)C(C)NC(=O)c1ccc(C(C)(C)C)cc1` (stereo unspecified), which IC50 [24] is on record?
A: > 123 µM (inactive)

Q: And the IC50 [25]?
A: > 123 µM (inactive)

Q: With `C[C@@H]1CN([C@@H](C)CO)C(=O)c2cc(NS(=O)(=O)c3ccc(F)cc3)ccc2O[C@@H](C)CCCCO[C@@H]1CN(C)Cc1ccc2c(c1)OCO2` as the compound, how does the AC50 [4] read?
A: 28.3 µM (active)

Q: What about the AC50 (HEK293) of the same compound?
A: 28.3 µM (active)

Q: Which AC50 [26] does the source give for `CO[C@H]1CN(C)C(=O)c2cc(NC(=O)Nc3cc(Cl)cc(Cl)c3)ccc2OC[C@@H](C)NC[C@H]1C` here?
A: 42.6 µM (active)

Q: What about the AC50 [27] of the same compound?
A: > 52 µM (inactive)
